Experimental data published in patent publication US6632924B2, “Method of measuring plasma membrane targeting of GLUT4” (Whitehead Institute for Biomedical Research, priority 1999, dated 2003).

How the values were obtained:
[1] = test system: GLUT4 reporter (GLUT4myc7-GFP) in 3T3-L1 cells; assay: Flow cytometry assay of GLUT4 reporter translocation to the plasma membrane in 3T3-L1 cells; format: cell-based, murine; settings: for fold increase in the proportion of total GLUT4 present at the cell surface: insulin 80 nM
Method: A GLUT4 translocation assay was carried out as follows: 3T3 L1 preadipocytes were infected with a retrovirus encoding a GLUT4 construct fused to green fluorescent protein (GFP) at its carboxy terminus, and containing seven myc epitope tags in the first exofacial loop. A population of cells expressing a narrow window of green fluorescence was isolated by fluorescence activated cell sorting (FACS). These cells were propagated and differentiated on 10 cm plates, and were reseeded on 6-well dishes the day prior to performing the GLUT4 translocation assay. Cells were serum starved for 3 hours, then stimulated or not with 160 nM insulin for 10 minutes. They were then placed on ice and washed with cold phosphate buffered saline with calcium and magnesium (PBS++). All subsequent steps were done at 4° C. Cells were incubated with anti-myc antibody (9E10), washed briefly with PBS++, and incubated with phycoerythrin-conjugated F(ab)2 antimouse IgG. Cells were washed with PBS++, resuspended using EDTA, and analysed by two color flow cytometry.
One protocol for carrying out the method of assessing translocation of modified GLUT4 is as follows: 3T3L1 cells are maintained at a subconfluent density, infected with retrovirus expression vectors which include DNA encoding modified GLUT4 and induced to differentiate into adipocytes. After being cultured (e.g., for 8-12 days) under appropriate conditions, the cells are reseeded onto plates (e.g., 6-well plates) and serum starved (e.g., for 3 or more hours). Some cells are stimulated by insulin (e.g., 160 nM, 10 minutes), placed on ice and washed at 4° C. with PBS++ (phosphate buffered saline containing calcium and magnesium). Anti-myc antibody (9E10, available from the American Type Culture Collection) is added to the cells ([…], 1 ½ hours, 4° C.). The cells are again washed with PBS++ at 4° C. and an […] labeled with a red fluorophore (R-phycoerythrin (R-PE) conjugated antimouse IgG, 50 μg/ml, 45 minutes, 4° C.) is added. Another washing with PBS++(4° C.) is carried out, the cells are suspended with EDTA and FACS (fluorescences activated cell scanning/sorting) is carried out.
Confluent cells were reseeded on the indicated day of differentiation to six well plates (Coming, Costar #3506) one day before use in experiments, and were starved in DMEM without fetal bovine serum for at least 3 hours before insulin stimulation. Insulin was used at 80 nM or 160 nM; no difference was noted between these concentrations in either 3T3-L1 or CHO cells. After treatment in the presence or absence of insulin for the times indicated in each figure, cells were quickly transferred to 4° C. and washed with cold phosphate buffered saline containing 0.9 mM Ca^++ and 0.5 mM Mg^++ (PBS++). All subsequent steps were carried out at 4° C., and staining of externalized myc epitope was done on adherent cells. Cells were incubated with a 1:200 dilution of anti-myc (9E10) ascites in PBS++, 2% bovine serum albumin, 4% donkey serum for 1.5 hours. Cells were then washed twice in PBS++, for 5 min. each time. They were then incubated 45 min. in 12.5 µg/ml R-phycoerythrin conjugated donkey F(ab′)2 anti-mouse IgG secondary antibody, diluted in PBS++, 2% BSA, 4% donkey serum. Cells were washed three times with PBS++, for 10 min. each time, and were resuspended by gentle scraping in PBS++, 2% BSA for flow cytometry. […]

[2] = test system: GLUT4 reporter in CHO cells; assay: Flow cytometry assay of GLUT4 reporter translocation to the plasma membrane in CHO cells; format: cell-based, Chinese hamster
Method: CHO-K1 cells stably expressing the murine ecotropic retroviral receptor were kindly provided by David Hirsch, Roger Lawrence, and Monty Kreiger (Massachusetts Institute of Technology, Cambridge Mass.), and were maintained in Han's F-12 medium with 10% fetal bovine serum, 2 mM glutamine, 100 U/ml penicillin, and 0.1 mg/ml streptomycin (Baker, B. W., et al., (1992)). To use identical experimental conditions in CHO and 3T3-L1 cells, CHO cells were placed in the same medium used for 3T3-L1 adipocytes two days before assays of GLUT4 trafficking. Phoenix ecotropic retroviral packaging cells were a gift from Garry Nolan (Stanford University Medical Center) and VE23 ecotropic retroviral packaging cells were a gift from Merav Socolovsky (Whitehead Institute, Cambridge Mass.) (Kinsella, and Nolan, Hum Gene Ther. 7:1405-1413 (1996); Socolovsky, M., et al. J Biol Chem. 272:14009-14012 (1997)). Both retroviral packaging cell lines were cultured in DMEM, 10% fetal bovine serum, glutamine, penicillin and streptomycin as above.
Confluent cells were reseeded on the indicated day of differentiation to six well plates (Coming, Costar #3506) one day before use in experiments, and were starved in DMEM without fetal bovine serum for at least 3 hours before insulin stimulation. Insulin was used at 80 nM or 160 nM; no difference was noted between these concentrations in either 3T3-L1 or CHO cells. After treatment in the presence or absence of insulin for the times indicated in each figure, cells were quickly transferred to 4° C. and washed with cold phosphate buffered saline containing 0.9 mM Ca^++ and 0.5 mM Mg^++ (PBS++). All subsequent steps were carried out at 4° C., and staining of externalized myc epitope was done on adherent cells. Cells were incubated with a 1:200 dilution of anti-myc (9E10) ascites in PBS++, 2% bovine serum albumin, 4% donkey serum for 1.5 hours. Cells were then washed twice in PBS++, for 5 min. each time. They were then incubated 45 min. in 12.5 µg/ml R-phycoerythrin conjugated donkey F(ab′)2 anti-mouse IgG secondary antibody, diluted in PBS++, 2% BSA, 4% donkey serum. Cells were washed three times with PBS++, for 10 min. each time, and were resuspended by gentle scraping in PBS++, 2% BSA for flow cytometry. For experiments involving insulin removal, cells were chilled as above after insulin stimulation, then washed twice with 5 mM sodium acetate, 150 mM NaCl, pH 4.0 (Yang, J., et al., J Biol Chem. 267:1039310399 (1992); Kao, A. W., et al., J Biol Chem. 273:25450-25457 (1998)). Cells were rewarmed in 37° C. DMEM for the times indicated, restimulated or not with insulin, and then returned to 4° C. and chilled with cold PBS++ before staining as above.
Flow cytometry was done on FACScan or FACSCalibur cytometers (Becton-Dickinson). Appropriate compensation between the FL1 and FL2 channels was set using uninfected (GFP-negative) cells or cells stained with PE only (e.g. using a PE-conjugated anti-transferrin receptor antibody; Pharmingen). […] For each sample, data from ≧10,000 cells were collected. Median fluorescence intensities were used for quantitation, since this measure of central tendency is least sensitive to outliers. For each sample, the PE and GFP fluorescence specifically attributable to the presence of the GLUT4 reporter were determined by subtracting background fluorescences, measured using control unstained cells and cells not expressing the reporter, respectively.
Whether this recycling mechanism is present in an unrelated cell type was also assessed. This was done by infecting Chinese Hamster Ovary (CHO) cells expressing the murine ecotropic retroviral receptor with a retrovirus carrying the GLUT4 reporter, and using FACS to isolate cells falling within a narrow range of GFP fluorescence intensities. CHO cells are smaller and have less autofluorescence than 3T3-L1 adipocytes or fibroblasts. […]

[3] = test system: GLUT4myc-GFP in 3T3-L1 adipocytes; assay: Time-lapse video fluorescence microscopy of GLUT4myc-GFP in 3T3-L1 adipocytes; format: cell-based, murine; settings: 3T3-L1 adipocyte; 2.5, 5 and 10 minutes after insulin
Method: Time lapse video fluorescence microscopy was performed using a Nikon Diaphot 300 inverted microscope as described (Smith, G. A., et al., J Cell Biol. 135:647-660 (1996)). 3T3-L1 adipocytes expressing GLUT4myc-GFP were reseeded to 25 mm round coverslips and were incubated in serum-free DMEM for at least three hours before microscopy. Cells were maintained at 37° C. during microscopy using an aluminum chamber mounted on the stage and connected to a circulating waterbath. Images were acquired every 15 sec using a Hammamatsu CCD camera and Metamorph software (Universal Imaging Corp., West Chester, Pa.).
The GLUT4 reporter in a murine retroviral vector was used to infect 3T3-L1 fibroblasts. The infected cells underwent normal adipose differentiation (see below), and we took several approaches to confirm that the GLUT4 reporter traffics appropriately. […] In the absence of insulin, GFP fluorescence is present in the perinuclear pattern that is characteristic of GLUT4, as well as in punctate structures near the plasma membrane and throughout the cytoplasm. Lipid droplets are present in the cytoplasm, and are seen as discrete areas of reduced fluorescence intensity.

GLUT4 in adipocytes = settings: ≦10% in the absence of insulin; cited from earlier work
[4] = CHO cells in DMEM, 80 nM insulin

insulin
fold increase in the proportion of total GLUT4 present at the cell surface ([1]; 3T3-L1 adipocytes, 10 min): 5.0 fold | difference in response between 80 nM and 160 nM insulin ([1]; 3T3-L1 cells): no difference | fall of the fraction of GLUT4 on the plasma membrane after the peak ([1]; all stages of 3T3-L1 differentiation, 80 nM insulin): 30% to 40% | fold increase in the proportion of total GLUT4 present at the cell surface ([1]; confluent 3T3-L1 fibroblasts, 5 min): 4.4 fold | average maximal increase in the proportion of GLUT4 at the cell surface ([1]; mature (Day 8 and 10) 3T3-L1 adipocytes, 80 nM insulin): 5.4 fold | difference in response between 80 nM and 160 nM insulin ([2]; CHO cells): no difference | kinetics of GLUT4 redistribution after insulin addition ([2]; CHO cells cultured in DME medium (25 mM glucose), 80 nM insulin): biphasic kinetics | kinetics of GLUT4 externalization after insulin addition ([2]; CHO cells cultured in F12 medium (10 mM glucose), 80 nM insulin): essentially monophasic response | time of peak GLUT4 externalization after insulin addition [2, 4]: four to five | time to steady state of cell-surface GLUT4 after insulin addition [2, 4]: twenty | peak fold increase in the proportion of GLUT4 at the cell surface versus unstimulated cells ([2]; CHO cells in DMEM, 80 nM insulin, 5 minutes after addition): 5.5 fold | part of the peak increase in cell-surface GLUT4 eliminated in the subsequent decrease ([2]; CHO cells, several experiments): 50% to 60% | fold increase in the proportion of total GLUT4 present at the cell surface ([2]; confluent CHO cells, insulin 80 nM, 8 min): 3.5 fold | distribution of GFP fluorescence after insulin addition [3]: redistribution of fluorescence to the plasma membrane | proportion of GLUT4 at the cell surface in the presence of insulin (GLUT4 in adipocytes): approximately 50%
